Source: ChEMBL document CHEMBL1201862, “PubChem BioAssay data set” (2004)
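Each compound was tested at five concentrations against cells in 96-well plates for 48 hours. At the GI50, growth is halved.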 The source made the active and inactive calls. Cut-off read from the data, not from the text of the source: active = GI50 up to about 1.1 µM and inactive = higher.

Legend:
Experiment in all cases: DTP human tumour cell line panel, 48 h
ACHN = tested on: ACHN
SNB-19 = tested on: SNB-19
K562 = tested on: K562
OVCAR-4 = tested on: OVCAR-4
DU-145 = tested on: DU-145
OVCAR-3 = tested on: OVCAR-3
NCI-H460 = tested on: NCI-H460
HCT-116 = tested on: HCT-116
UO-31 = tested on: UO-31
T47D = tested on: T47D
SK-MEL-28 = tested on: SK-MEL-28
UACC-62 = tested on: UACC-62
HOP-92 = tested on: HOP-92
NCI-H522 = tested on: NCI-H522
MDA-MB-435 = tested on: MDA-MB-435
HOP-62 = tested on: HOP-62
LOX IMVI = tested on: LOX IMVI
HCC 2998 = tested on: HCC 2998
SF-539 = tested on: SF-539
KM12 = tested on: KM12
OVCAR-5 = tested on: OVCAR-5
PC-3 = tested on: PC-3
UACC-257 = tested on: UACC-257
SN12C = tested on: SN12C
EKVX = tested on: EKVX
A549 = tested on: A549
SK-OV-3 = tested on: SK-OV-3
CAKI-1 = tested on: CAKI-1
SR = tested on: SR
A498 = tested on: A498
MDA-MB-231 = tested on: MDA-MB-231
HL-60 = tested on: HL-60
MCF7 = tested on: MCF7
Hs-578T = tested on: Hs-578T
Malme-3M = tested on: Malme-3M
TK-10 = tested on: TK-10
MDA-N = tested on: MDA-N
OVCAR-8 = tested on: OVCAR-8
SNB-75 = tested on: SNB-75
SK-MEL-2 = tested on: SK-MEL-2
MOLT-4 = tested on: MOLT-4
BT-549 = tested on: BT-549
HCT-15 = tested on: HCT-15
CCRF-CEM = tested on: CCRF-CEM
NCI-H226 = tested on: NCI-H226
RXF 393 = tested on: RXF 393
RPMI-8226 = tested on: RPMI-8226
IGROV-1 = tested on: IGROV-1
SF-268 = tested on: SF-268
NCI/ADR-RES = tested on: NCI/ADR-RES
SW-620 = tested on: SW-620
SK-MEL-5 = tested on: SK-MEL-5
SF-295 = tested on: SF-295
786-0 = tested on: 786-0
M14 = tested on: M14
NCI-H23 = tested on: NCI-H23
HT-29 = tested on: HT-29
U-251 = tested on: U-251
COLO 205 = tested on: COLO 205

CCCCC(=O)Nc1ccc2cc(C(=O)OC)c(Cl)nc2n1
GI50 (ACHN): > 100 µM (inactive)
GI50 (SNB-19): 16.5 µM (inactive)
GI50 (K562): > 100 µM (inactive)
GI50 (OVCAR-4): > 100 µM (inactive)
GI50 (DU-145): 3.11 µM (inactive)
GI50 (OVCAR-3): 7.59 µM (inactive)
GI50 (NCI-H460): 44.2 µM (inactive)
GI50 (HCT-116): > 93.5 µM (inactive)
GI50 (UO-31): 19.9 µM (inactive)
GI50 (T47D): 7.89 µM (inactive)
GI50 (SK-MEL-28): > 76.4 µM (inactive)
GI50 (UACC-62): > 100 µM (inactive)
GI50 (HOP-92): > 100 µM (inactive)
GI50 (NCI-H522): > 100 µM (inactive)
GI50 (MDA-MB-435): > 100 µM (inactive)
GI50 (HOP-62): 7.11 µM (inactive)
GI50 (LOX IMVI): > 100 µM (inactive)
GI50 (HCC 2998): 10.9 µM (inactive)
GI50 (SF-539): > 100 µM (inactive)
GI50 (KM12): 3.15 µM (inactive)
GI50 (OVCAR-5): > 100 µM (inactive)
GI50 (PC-3): 19.7 µM (inactive)
GI50 (UACC-257): 43.7 µM (inactive)
GI50 (SN12C): 50 µM (inactive)
GI50 (EKVX): 59.7 µM (inactive)
GI50 (A549): > 100 µM (inactive)
GI50 (SK-OV-3): > 100 µM (inactive)
GI50 (CAKI-1): > 60.7 µM (inactive)
GI50 (SR): > 100 µM (inactive)
GI50 (A498): 37.1 µM (inactive)
GI50 (MDA-MB-231): > 100 µM (inactive)
GI50 (HL-60): 2.58 µM (inactive)
GI50 (MCF7): 13.3 µM (inactive)
GI50 (Hs-578T): 4.7 µM (inactive)
GI50 (Malme-3M): > 100 µM (inactive)
GI50 (TK-10): > 71.3 µM (inactive)
GI50 (MDA-N): > 100 µM (inactive)
GI50 (OVCAR-8): > 100 µM (inactive)
GI50 (SNB-75): > 100 µM (inactive)
GI50 (SK-MEL-2): > 100 µM (inactive)
GI50 (MOLT-4): > 100 µM (inactive)
GI50 (BT-549): > 100 µM (inactive)
GI50 (HCT-15): > 100 µM
GI50 (CCRF-CEM): > 100 µM (inactive)
GI50 (NCI-H226): > 100 µM (inactive)
GI50 (RXF 393): > 100 µM (inactive)
GI50 (RPMI-8226): 9.75 µM (inactive)
GI50 (IGROV-1): > 100 µM (inactive)
GI50 (SF-268): > 100 µM (inactive)
GI50 (NCI/ADR-RES): > 100 µM (inactive)
GI50 (SW-620): > 100 µM (inactive)
GI50 (SK-MEL-5): > 90.8 µM (inactive)
GI50 (SF-295): 40.1 µM (inactive)
GI50 (786-0): > 100 µM (inactive)
GI50 (M14): > 100 µM (inactive)
GI50 (NCI-H23): > 100 µM (inactive)
GI50 (HT-29): > 100 µM (inactive)
GI50 (U-251): 28.6 µM (inactive)
GI50 (COLO 205): 12.8 µM (inactive)

O=[N+]([O-])c1cc(/C=N/C23CC4CC(CC(C4)C2)C3)ccc1Cl
GI50 (ACHN): 24 µM (inactive)
GI50 (SNB-19): 28.6 µM (inactive)
GI50 (K562): 4.42 µM (inactive)
GI50 (OVCAR-4): 19.5 µM (inactive)
GI50 (DU-145): 27.8 µM (inactive)
GI50 (OVCAR-3): 17.9 µM (inactive)
GI50 (NCI-H460): 31.8 µM (inactive)
GI50 (HCT-116): 3.94 µM (inactive)
GI50 (UO-31): 7.52 µM (inactive)
GI50 (T47D): 18.2 µM (inactive)
GI50 (SK-MEL-28): 18.1 µM (inactive)
GI50 (UACC-62): 14.3 µM (inactive)
GI50 (HOP-92): 34.5 µM (inactive)
GI50 (NCI-H522): 13.4 µM (inactive)
GI50 (MDA-MB-435): 16.5 µM (inactive)
GI50 (HOP-62): 4 µM (inactive)
GI50 (LOX IMVI): 19 µM (inactive)
GI50 (HCC 2998): 30.5 µM (inactive)
GI50 (SF-539): 22.9 µM (inactive)
GI50 (KM12): 17.1 µM (inactive)
GI50 (OVCAR-5): 34 µM (inactive)
GI50 (PC-3): 19.8 µM (inactive)
GI50 (UACC-257): 20.7 µM (inactive)
GI50 (SN12C): 15.9 µM (inactive)
GI50 (EKVX): 29.9 µM (inactive)
GI50 (A549): > 100 µM (inactive)
GI50 (SK-OV-3): 18.4 µM (inactive)
GI50 (CAKI-1): 6.71 µM (inactive)
GI50 (SR): 4.37 µM (inactive)
GI50 (A498): > 100 µM (inactive)
GI50 (MDA-MB-231): 11.7 µM (inactive)
GI50 (HL-60): 3.03 µM (inactive)
GI50 (MCF7): 9.02 µM (inactive)
GI50 (Hs-578T): 38.8 µM (inactive)
GI50 (Malme-3M): 20.9 µM (inactive)
GI50 (TK-10): 29.7 µM (inactive)
GI50 (MDA-N): 8.02 µM (inactive)
GI50 (OVCAR-8): 25.1 µM (inactive)
GI50 (SNB-75): 36.2 µM (inactive)
GI50 (SK-MEL-2): 20.5 µM (inactive)
GI50 (MOLT-4): 8.73 µM (inactive)
GI50 (BT-549): 21 µM (inactive)
GI50 (HCT-15): 22.6 µM
GI50 (CCRF-CEM): 2.82 µM (inactive)
GI50 (NCI-H226): 51.1 µM (inactive)
GI50 (RXF 393): 19.2 µM (inactive)
GI50 (RPMI-8226): 4.31 µM (inactive)
GI50 (IGROV-1): 23.6 µM (inactive)
GI50 (SF-268): 28.7 µM (inactive)
GI50 (NCI/ADR-RES): 26.3 µM (inactive)
GI50 (SW-620): 13 µM (inactive)
GI50 (SK-MEL-5): 21.5 µM (inactive)
GI50 (SF-295): 37.9 µM (inactive)
GI50 (786-0): 19.8 µM (inactive)
GI50 (M14): 12.3 µM (inactive)
GI50 (NCI-H23): 19.1 µM (inactive)
GI50 (HT-29): 19.1 µM (inactive)
GI50 (U-251): 18.7 µM (inactive)
GI50 (COLO 205): 42.6 µM (inactive)

COc1cc2[nH]c(=O)c3cc(-c4ccccc4)cc4c(Cl)nc(c1OC)c2c43
GI50 (ACHN): 15.6 µM (inactive)
GI50 (SNB-19): 28.1 µM (inactive)
GI50 (K562): 38.2 µM (inactive)
GI50 (OVCAR-4): 9.27 µM (inactive)
GI50 (DU-145): 23.6 µM (inactive)
GI50 (OVCAR-3): 3.79 µM (inactive)
GI50 (NCI-H460): 21 µM (inactive)
GI50 (HCT-116): 3.1 µM (inactive)
GI50 (UO-31): 19.2 µM (inactive)
GI50 (T47D): 24.4 µM (inactive)
GI50 (SK-MEL-28): 32.1 µM (inactive)
GI50 (UACC-62): 14.1 µM (inactive)
GI50 (HOP-92): 41.8 µM (inactive)
GI50 (NCI-H522): 3.77 µM (inactive)
GI50 (MDA-MB-435): 2.81 µM (inactive)
GI50 (HOP-62): 32.6 µM (inactive)
GI50 (LOX IMVI): 6.78 µM (inactive)
GI50 (HCC 2998): 23.6 µM (inactive)
GI50 (SF-539): 0.63 µM (active)
GI50 (KM12): 20 µM (inactive)
GI50 (OVCAR-5): 49.4 µM (inactive)
GI50 (PC-3): 4.86 µM (inactive)
GI50 (UACC-257): 4.69 µM (inactive)
GI50 (SN12C): 11.7 µM (inactive)
GI50 (EKVX): 14 µM (inactive)
GI50 (A549): 23.2 µM (inactive)
GI50 (SK-OV-3): > 47.8 µM (inactive)
GI50 (CAKI-1): 24.4 µM (inactive)
GI50 (SR): 9.89 µM (inactive)
GI50 (A498): > 100 µM (inactive)
GI50 (MDA-MB-231): 3.64 µM (inactive)
GI50 (HL-60): 2.17 µM (inactive)
GI50 (MCF7): 2.36 µM (inactive)
GI50 (Hs-578T): > 100 µM (inactive)
GI50 (Malme-3M): 6.32 µM (inactive)
GI50 (TK-10): 29.6 µM (inactive)
GI50 (MDA-N): 3.86 µM (inactive)
GI50 (OVCAR-8): 5.14 µM (inactive)
GI50 (SNB-75): > 39.4 µM (inactive)
GI50 (SK-MEL-2): 15.1 µM (inactive)
GI50 (MOLT-4): 4.63 µM (inactive)
GI50 (BT-549): 43.2 µM (inactive)
GI50 (HCT-15): 9.55 µM
GI50 (CCRF-CEM): 4.88 µM (inactive)
GI50 (NCI-H226): > 70.1 µM (inactive)
GI50 (RXF 393): 23.3 µM (inactive)
GI50 (RPMI-8226): 13.2 µM (inactive)
GI50 (IGROV-1): 19.1 µM (inactive)
GI50 (SF-268): 16.1 µM (inactive)
GI50 (NCI/ADR-RES): 7.35 µM (inactive)
GI50 (SW-620): 3.37 µM (inactive)
GI50 (SK-MEL-5): 12.5 µM (inactive)
GI50 (SF-295): > 49.4 µM (inactive)
GI50 (786-0): 6.59 µM (inactive)
GI50 (M14): 19.4 µM (inactive)
GI50 (NCI-H23): 15.3 µM (inactive)
GI50 (HT-29): 3.92 µM (inactive)
GI50 (U-251): 16.4 µM (inactive)
GI50 (COLO 205): 11.6 µM (inactive)
